Measured values published in PubChem BioAssay AID328 (DTP/NCI, 2004).
Toxic doses and inconclusive results are not listed.

Tested on: BDF1 mice, P388 leukemia ip, median survival T/C
Test: NCI In Vivo Anticancer Drug Screen. Data for tumor model P388 Leukemia (intraperitoneal) in B6D2F1 (BDF1) mice
Conditions: endpoint: median survival time, higher = longer survival
In short: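 Read-out is survival of treated animals expressed relative to the vehicle group, as a T/C ratio.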

[1] = dose: 25.0 mg/kg/injection, schedule: Q01DX009 (ip), vehicle: saline
[2] = dose: 50.0 mg/kg/injection, schedule: Q01DX009 (ip), vehicle: saline
[3] = dose: 12.5 mg/kg/injection, schedule: Q01DX009 (ip), vehicle: saline
[4] = dose: 50.0 mg/kg/injection, schedule: Q01DX009 (ip), vehicle: saline with Tween-80

For `CC(C)(C)C1CC[N-]CC1.CC(C)(C)C1CC[N-]CC1.[Cl][Pt+2][Cl]`, the T/C (dose: 25.0 mg/kg/injection, schedule: Q01DX009 (ip), vehicle: Klucel (hydroxypropylcellulose) (HPC)) was 104 % of control, the T/C (dose: 50.0 mg/kg/injection, schedule: Q01DX009 (ip), vehicle: Klucel (hydroxypropylcellulose) (HPC)) was 106 % of control and the T/C (dose: 100.0 mg/kg/injection, schedule: Q01DX009 (ip), vehicle: Klucel (hydroxypropylcellulose) (HPC)) was 117 % of control. For the same compound, the T/C (dose: 200.0 mg/kg/injection, schedule: Q01DX009 (ip), vehicle: Klucel (hydroxypropylcellulose) (HPC)) was 107 % of control.
With `Cc1nc(N)[nH]c(=O)c1CCCNc1cccc(C(F)(F)F)c1` the T/C (dose: 100.0 mg/kg/injection, schedule: Q01DX001 (ip), vehicle: Klucel (hydroxypropylcellulose) (HPC)) was 100 % of control, the T/C (dose: 200.0 mg/kg/injection, schedule: Q01DX001 (ip), vehicle: Klucel (hydroxypropylcellulose) (HPC)) was 104 % of control and the T/C (dose: 400.0 mg/kg/injection, schedule: Q01DX001 (ip), vehicle: Klucel (hydroxypropylcellulose) (HPC)) was 104 % of control.
In the case of `O=C(CNC(=O)c1cccc(C(=O)NCC(=O)Nc2ccc(C3=NCCN3)cc2)c1)Nc1ccc(C2=NCCN2)cc1`, the T/C (dose: 8.2 mg/kg/injection, schedule: Q01DX009 (ip), vehicle: saline) was 117 % of control, the T/C [1] was 169 % of control and the T/C [2] was 250 % of control.
`COc1ccc2c(c1)NC(=O)C2(C)SC` (stereo unspecified) was tested, and the T/C (dose: 12.5 mg/kg/injection, schedule: Q04DX003 (ip), vehicle: saline with Tween-80) was 103 % of control, the T/C (dose: 25.0 mg/kg/injection, schedule: Q04DX003 (ip), vehicle: saline with Tween-80) was 97 % of control and the T/C (dose: 50.0 mg/kg/injection, schedule: Q04DX003 (ip), vehicle: saline with Tween-80) was 106 % of control.
In the case of `COc1cc(N2C(N)=NC(N)=NC2(C)C)cc(OC)c1OC`, the T/C (dose: 6.25 mg/kg/injection, schedule: Q04DX003 (ip), vehicle: saline) was 100 % of control, the T/C (dose: 12.5 mg/kg/injection, schedule: Q04DX003 (ip), vehicle: saline) was 115 % of control and the T/C (dose: 25.0 mg/kg/injection, schedule: Q04DX003 (ip), vehicle: saline) was 100 % of control.
`N#CN(Cc1ccc(Cl)cc1Cl)C(=O)OCOc1ccc(Cl)cc1` was tested, and the T/C (dose: 100.0 mg/kg/injection, schedule: Q04DX003 (ip), vehicle: saline with Tween-80) was 100 % of control, the T/C (dose: 200.0 mg/kg/injection, schedule: Q04DX003 (ip), vehicle: saline with Tween-80) was 90 % of control and the T/C (dose: 400.0 mg/kg/injection, schedule: Q04DX003 (ip), vehicle: saline with Tween-80) was 109 % of control.
`CCCCCCC(N)C(C)O` (stereo unspecified) was tested, and the T/C [3] was 105 % of control, the T/C [1] was 100 % of control and the T/C [4] was 101 % of control. The T/C [2] was 105 % of control.
In the case of `O=C1c2cc3c(cc2CCC1c1ccc2c(c1)OCO2)OCO3` (stereo unspecified), the T/C (dose: 20.0 mg/kg/injection, schedule: Q01DX009 (ip), vehicle: saline with Tween-80) was 91 % of control, the T/C (dose: 40.0 mg/kg/injection, schedule: Q01DX009 (ip), vehicle: saline with Tween-80) was 91 % of control and the T/C (dose: 120.0 mg/kg/injection, schedule: Q01DX009 (ip), vehicle: saline with Tween-80) was 95 % of control. For the same compound, the T/C (dose: 240.0 mg/kg/injection, schedule: Q01DX009 (ip), vehicle: saline with Tween-80) was 91 % of control.
`C[CH2][Sn]([CH2]C)([CH2]C)[NH]S(=O)(=O)c1ccc(C)cc1` was tested, and the T/C (dose: 0.39 mg/kg/injection, schedule: Q01DX009 (ip), vehicle: Klucel (hydroxypropylcellulose) (HPC)) was 100 % of control, the T/C (dose: 0.78 mg/kg/injection, schedule: Q01DX009 (ip), vehicle: Klucel (hydroxypropylcellulose) (HPC)) was 115 % of control and the T/C (dose: 3.12 mg/kg/injection, schedule: Q01DX001 (ip), vehicle: Klucel (hydroxypropylcellulose) (HPC)) was 100 % of control. For the same compound, the T/C (dose: 6.25 mg/kg/injection, schedule: Q01DX001 (ip), vehicle: Klucel (hydroxypropylcellulose) (HPC)) was 90 % of control, the T/C (dose: 12.5 mg/kg/injection, schedule: Q01DX001 (ip), vehicle: Klucel (hydroxypropylcellulose) (HPC)) was 90 % of control and the T/C (dose: 18.0 mg/kg/injection, schedule: Q01DX001 (ip), vehicle: Klucel (hydroxypropylcellulose) (HPC)) was 104 % of control.
`O=C(Cl)C1=C(c2ccccc2)C1c1ccccc1` (stereo unspecified) was tested, and the T/C [4] was 102 % of control and the T/C (dose: 100.0 mg/kg/injection, schedule: Q01DX009 (ip), vehicle: saline with Tween-80) was 101 % of control.
`CN(C)CCCCc1cn(-c2ccccc2)c2ccccc12` was tested, and the T/C [3] was 105 % of control, the T/C (dose: 27.5 mg/kg/injection, schedule: Q01DX001 (ip), vehicle: saline) was 100 % of control and the T/C (dose: 33.0 mg/kg/injection, schedule: Q01DX009 (ip), vehicle: saline) was 109 % of control. The T/C [2] was 104 % of control, the T/C (dose: 55.0 mg/kg/injection, schedule: Q01DX001 (ip), vehicle: saline) was 108 % of control and the T/C (dose: 110.0 mg/kg/injection, schedule: Q01DX001 (ip), vehicle: saline) was 108 % of control.
